Assay results taken from US6395261B1, “Walnut seed meal extract” (Gattefosse S.A., priority 1998, dated 2002).

Experiments:
elastase = assay: Elastase activity of cellular extracts of fibroblasts (SANA substrate); type: biochemical, human; conditions: positive control at 2 mM
Description: This activity is evaluated on cellular extracts of fibroblasts of human dermis, isolated from the foreskin and cultured according to routine techniques at 37° C., in a humid air-CO2 (95/5%) atmosphere.
The fibroblasts are cultured in DMEM medium supplemented with fetal calf serum (10% FCS) and passaged regularly until a sufficient biomass is obtained.
To carry out the test, the cells are detached from their support by trypsinization. After centrifugation and suitable treatment, the cellular extracts are recovered.
The elastase activity of the cellular extracts was evaluated using Suc-(L-Ala)3-p-nitroanilide (SANA) as substrate. Aliquots of the cellular extract are preincubated at 37° C. in TEA (triethanolamine) buffer at pH=7.8, alone or in buffer containing various concentrations of extracts.
After incubation, a solution of SANA is added to the reaction mixture.
The optical densities at 405 nm are recorded for 1 hour 30 min to 2 hours.
A positive control was introduced into the trial (dichloroisocoumarin at 2 mM).

human skin fibroblasts = assay: Incorporation of 3H-leucine into protein fractions of fibroblasts in monolayer culture; type: cell-based; conditions: vitamin C reference product
Description: After culture of the human skin fibroblasts until the cells become confluent, the culture medium is replaced by a medium containing 2% FCS (Fetal Calf Serum) with:
or vitamin C (reference product).
A batch of untreated control culture is performed in parallel.
After 24 hours of incubation at 37° C., labeled leucine (^3H-leucine) is added to the culture medium and the medium is left to incubate for an additional 48 hours. The following are recovered separately:
on the one hand, the culture medium,
on the other hand, the cell lysate after cellular lysis,
and finally the insoluble fraction (membranes, matrix deposited).
The macromolecules are extracted and then the incorporation of the radioactive precursor of these molecules is measured by liquid scintillation.

[1] = macromolecules extracted from the culture medium
[2] = macromolecules extracted from the intracellular medium

Compound | Inhibition (elastase; elastase activity) | mU elastase/10^6 cell (elastase) | % Control (human skin fibroblasts; [1]) | Counts/minute (human skin fibroblasts; [1]) | % Control (human skin fibroblasts; [2]) | Counts/minute (human skin fibroblasts; [2])
O=c1oc(Cl)c(Cl)c2ccccc12 [DCI, dichloroisocoumarin] | 37 | 0.431 mU elastase/10^6 cell | – | – | – | –
O=C1O[C@H]([C@@H](O)CO)C(O)=C1O [Vitamin C, vitamin C] | – | – | 132 % Control | 34748 ± 2599 Counts/minute | 96 % Control | 35953 ± 4349 Counts/minute
